This is an account of results in a melting point compilation (Tetko et al.; mined from patent text by program, amines drawn as free bases though some values may be those of a salt).

Regarding `COC1=C(C(=O)c2ccc(C)cc2)C(c2ccc(OC(F)(F)F)cc2)N(c2ccc(C)nn2)C1=O` (centres undefined), the melting point was in the range of 206 to 207 °C. Under `CN1CC(CCN2CCN(c3ccccc3)CC2)c2nc3ccccc3n2C1=O` (centres undefined) stands 144 to 146 °C; under `CCCCN(CCCC)c1ccc(C=CC2=C(OC)C(=CC=CC3=C(C#N)C(=C(C#N)C#N)OC3(c3ccccc3)C(F)(F)F)CC(C)(C)C2)c(OC)c1` (centres undefined), 153 to 158 °C.

In the case of `COC(=O)c1cccc2[nH]c(=O)c(C(=O)c3ccccc3)c(O)c12`, the melting point was 263 to 265 °C. Then `CN1C(=O)CCC1(O)c1ccc(Cl)c(S(=O)(=O)Cl)c1` (centres undefined), with 112 to 114 °C; and `CCOc1ccc(C(=O)c2c(-c3ccc(OC)cc3)sc3cc(OC)ccc23)cc1`, with 124 to 125 °C; and `CCc1nc2c(C)cc(C)nc2n1Cc1ccc(C(=C(SC)c2nnn[nH]2)c2ccccc2)cc1`, with 116 to 119 °C.

`COc1cccc2c(=O)n3nc(C(N)=O)cc3[nH]c12` gave a melting point of 265 to 270 °C. Then `Cc1cccc(NC(=O)Nc2cccc3c2C2CC(O)CCN2C3=O)n1` (centres undefined), with 240 to 242 °C; and `O=C(O)CCCCc1cc2cc(Cl)ccc2n1S(=O)(=O)c1ccccc1`, with 144 to 148 °C; and `CCCN(CC)C(C)CN1CCc2c(c(=O)oc3cc(OC)ccc23)C1` (centres undefined), with 100 to 101 °C.

Compound `CCSN(C)C(=O)Nc1ccc(Br)cc1` had a melting point of under 50 °C. Under `O=C(Nc1ncccn1)Nc1ccccc1C(F)(F)F` stands 224 to 225 °C; under `CCc1c(-c2ccccc2)oc2c(C(=O)NCCCN3CCN(c4ccccc4OC)CC3)cccc2c1=O`, 133 to 136 °C; under `COC(=O)c1ccc2oc(-c3ccccc3OCC(C)OC(=O)c3ccccc3)cc(=O)c2c1` (centres undefined), 211 to 213 °C. On to `c1cncc(-c2nnc(NCC3CC3)s2)c1`, for which the melting point was in the range of 162 to 165 °C. Under `CCCCC(=N)NC(=O)Nc1cccc(C(F)(F)F)c1` stands 167 to 169 °C; under `CN1CCCCC1C(=O)NN=Cc1cc(Cl)cc(Cl)c1O` (centres undefined), 107 to 110 °C; under `Cc1ccc(-n2nc(C(=O)CCCO[N+](=O)[O-])cc2-c2ccc(S(C)(=O)=O)cc2)cc1`, 107 to 109 °C. Under `CCCc1nc2c(N)nc3ccccc3c2n1CCCCN(O)C(C)=O` stands 191 to 193 °C. In turn, `Cc1c(C(=O)N(N)c2ccccc2)nn(-c2ccc(Cl)cc2Cl)c1-c1ccc(Cl)s1` came in with a melting point of 154 to 155 °C. In the case of `CCNS(=O)(=O)c1ccc(Cl)c(C)c1C#N`, the melting point was in the range of 85 to 90 °C. Under `CC(C)(C)OC(=O)CC(=O)CO[C@H]1NC(=O)[C@@H]1NC(=O)c1ccccc1` stands 142 °C. For `CCCCNc1ccc(CCNc2ncnc(CC)c2C(=O)OCC)cc1`, the melting point was 65 to 66 °C. Consider `COS(=O)(=O)Oc1ccc(-c2cccc(-c3nc(C(C)C)[nH]c3-c3cccc(C)n3)c2)cc1`, for which the melting point is 95 to 105 °C. In the case of `Ic1ccc2c(c1)C(c1ccccc1)=NCc1nnc(Cc3ccccc3)n1-2`, the melting point was 200 to 201 °C. Under `CCOC(=O)C(C(=O)Nc1ccc(OC)cc1)(c1ccccc1)c1ccccc1` stands 89 to 91 °C. The compound `CSc1nnc(C2(C)CC2)c(=O)n1N` yielded a melting point of 115 to 116 °C.

On to `CC(=O)n1nc(C)c2ccc(F)cc21`, for which the melting point was 89 to 91 °C. As to `C=CCNc1nc(Cl)nc2c1ncn2CC=C`, the melting point was 110 to 112 °C.

Compound `COc1cc(-c2nc3ccc(OCCN4CCOCC4)cc3n2Cc2ccccc2C(F)(F)F)cc(OC)c1OC` displayed a melting point of 175 °C. Then `COc1cc2ncnc(N3CCC(CI)CC3)c2cc1OC`, with 180 to 182 °C; and `CC(c1cc(C#N)ncn1)C(O)(Cn1cncn1)c1ccc(F)cc1F` (centres undefined), with 148 to 149 °C. Under `O=Cc1ccnc2c(NC(=O)c3c(Cl)cccc3Cl)cccc12` stands 239 °C. Then `COC(=O)c1c(C(=O)OC)c(-c2ccc(OC)c(OC)c2)c2sccc2c1O`, with 147 to 148 °C; and `OCCOCCn1c2ccccc2c2ccccc21`, with 80 to 81 °C; and `O=C(NNc1ccc(Cl)cc1)c1cnc2ccc(I)cc2c1O`, with 250 to 252 °C. In the case of `CCOC(=O)c1sc(=O)[nH]c1-c1cccc(C(F)(F)F)c1`, the melting point is 168 to 171 °C. Then `COc1cccc2c1nc(C(F)F)n2-c1nc(-c2ccc(N)nc2)nc(N2CCOCC2)n1`, with 259 to 261 °C; and `COc1nnc(-c2ccccc2)c(=O)n1N`, with 165 °C; and `COc1ccc(Cc2cc(=O)[nH]c3nc(OCc4ccccn4)ncc23)cc1Cl`, with 130 to 131 °C.

`c1ccc(CCc2n[nH]c(NCCCCOc3cccc(CN4CCCCC4)c3)n2)cc1` had a melting point of 146 to 147 °C. Under `CCCS(=O)(=O)CC(=O)NNC(=O)N1Cc2ccccc2Oc2ccc(Cl)cc21` stands 173 to 175 °C; under `CCOC(=O)CNc1cc(F)ccc1C(=O)O`, 123 to 125 °C. As for `Cc1ccc(S(=O)(=O)NC(=O)Nc2cc(C)c(S(=O)(=O)C[N+](=O)[O-])c(C)c2)cc1`, the melting point lay in the range of 150 to 155 °C. Then `Cc1ccccc1COC1COC(c2ccco2)OC1` (centres undefined), with 64 to 65 °C.

As for `CCCCN(C1CS(=O)(=O)c2ccccc21)S(C)(=O)=O` (centres undefined), the melting point lay in the range of 171 to 173 °C.

Regarding `COc1cc(NC(=O)C(F)(F)F)cc(OC)c1C(C)=O`, the melting point lay in the range of 172 to 173 °C. Then `COc1ccc2nc(COc3ccc(CC(S)C(N)=O)cc3)n(C)c2c1` (centres undefined), with 204 to 208 °C; and `Cc1cncc(-c2nc(C(F)(F)F)cn2-c2ccc(S(N)(=O)=O)cc2)c1`, with 242 to 243 °C. Under `O=[N+]([O-])c1ccc(CNc2ccccn2)cc1` stands 131 to 132 °C; under `Cc1ccc(Nc2nc(C)cs2)nc1`, 212 to 214 °C; under `O=C(Cc1ccc(F)cc1)c1ccc(F)cc1`, 91 to 93 °C. Consider `CCOC(=O)C(C)c1ccc(-c2ccc(F)cc2F)c(F)c1` (centres undefined), for which the melting point is 36 to 38 °C. Under `CCCCN=c1cc2n(c(=O)n1C)CCc1cc(OC)c(OC)cc1-2` stands 120 to 121 °C; under `Cc1c(CO)ncc(Br)c1N1CCCCC1`, 80 to 81 °C; under `C=CCOc1ccc2cc(O)ccc2c1`, 92 to 93 °C.

In turn, `CCc1nn(CCO)c(N)c1Cc1cc(Cl)cc(Cl)c1` displayed a melting point of 135 °C. Then `O=[N+]([O-])c1ccc(-c2ccc(Cl)cc2)cc1`, with 142 to 145 °C; and `CC(=Cc1ccc(C(F)(F)F)cc1)C1OCC(S(=O)Cc2ccc(Cl)cc2)CO1` (centres undefined), with 192 to 194 °C; and `CC1(CN2CCC(N3CCNC3=O)CC2)OCc2ccccc2-n2cccc21` (centres undefined), with 197 to 199 °C.

As for `CCCCCCCCCCCCNc1cc(C)c(C)cc1N`, the melting point is 53 to 54 °C.

With `c1ccc(C2=NNC(c3ccccc3)C2)cc1` (centres undefined), the melting point lay within 194 to 199 °C. Then `CCCC(=O)c1ccc(C(CC(=O)Nc2cc(C(N)=O)ccc2C(C)(C)C)CC(C)C)c(OC)c1` (centres undefined), with 189 to 190 °C; and `COC(=O)c1ccccc1C(=O)NNC(=S)Nc1ccccc1`, with 140 to 142 °C; and `CN(C)C1CC2=CN(S(=O)(=O)c3ccccc3)C=C3C=CC(=O)CC1=C32` (centres undefined), with 114 to 116 °C.

With `O=c1[nH]c2cc(Cl)cc(Cl)c2cc1Br`, the melting point was over 300 °C.

As to `COC(=O)[C@H](Cc1ccccc1)Oc1c(C)cc(-c2c3ccccc3c(Br)c3sc(C)c(C)c23)cc1C`, the melting point was 134 to 139 °C. Then `O=C(O)CCc1oc(SCc2cccnc2)nc1-c1ccc(Cl)cc1`, with 129 to 130 °C; and `O=C(NO)[C@H](CNS(=O)(=O)c1ccc(OCc2ccccc2)cc1)N1CCCCC1`, with 126 °C; and `NC(=O)NC(=O)c1ccc2ccccc2c1`, with 207 to 208 °C. Then `NC(=O)C(Nc1ncccc1[N+](=O)[O-])c1c(Cl)cccc1Cl` (centres undefined), with 207 °C; and `CCOC(=O)CNc1nccc(-c2ccccn2)n1`, with 85 °C; and `O=C(NCc1ccc(F)cc1)c1sc2ccccc2c1Br`, with 120 to 125 °C. Then `NC(=CC(=O)[C@H](Cc1ccccc1)N(Cc1ccccc1)Cc1ccccc1)Cc1ccccc1`, with 101 to 102 °C; and `CN(CCc1ccccc1)c1nc(=O)c2cccnc2s1`, with 115 to 116 °C.

`O=C1NCCc2c(-c3ccc(Cl)cc3)[nH]c3cccc1c23` yielded a melting point of 250 to 252 °C. In the case of `COC(=O)c1cccc(SCc2c(O[C@H](Cn3ccnc3)c3ccccc3)ccc3c2CCCC3=O)c1`, the melting point stood at 65 °C. For `O=C(O)CCc1oc(-n2cnc3ccccc32)nc1-c1ccc(Cl)cc1`, the melting point is 217 to 218 °C. Under `COc1cc(OC)nc(NC(=O)NS(=O)(=O)c2ccccc2-c2nnn(C)n2)n1` stands 214 to 222 °C. Then `CCC1CCc2nc3c(c(N)c2C1=O)c1ccccc1n3C` (centres undefined), with 129 to 131 °C.

`CC(C)(C)OC(=O)NCCOc1noc2c(C#N)cccc12` yielded a melting point of 91 to 92 °C. For the compound `COc1ccc(C(=O)c2ccc(OCc3nc(-c4ccccc4)oc3C)cc2C)c(O)c1`, the melting point was in the range of 109 to 110 °C.

With `CC(C)Cn1c(C(=O)OC(C)(C)C)c(-c2ccccc2)c2cc(OCc3ccccc3)ccc2c1=O`, the melting point was in the range of 138 to 139 °C.

With `CCOC(=O)C(=CNc1cnsn1)C(=O)c1cc(F)c(F)cc1F`, the melting point was 117 to 118 °C.

The compound `CCNC(=O)Nc1cc(-c2c(-c3ccc(F)c(C)c3)nc3c(C)cc(Cl)nn23)ccn1` registered a melting point of 229 to 230 °C. `O=C(Nc1ccccc1)Nc1cc(Cl)ccc1C(=O)O` showed a melting point of 186 to 188 °C.

Consider `O=C(O)CN1C(=O)N(Cc2cccc([N+](=O)[O-])c2)C(=O)C1O` (centres undefined), for which the melting point is 153 to 155 °C.

Turning to `COc1ccc(CCOc2ccc(NC(=O)c3cc(F)cc(N4CCCCC4)c3)c3ccccc23)cc1OC`, the melting point was 158 to 160 °C.

By melting point is commonly meant the temperature of the solid-liquid transition.
